The values that follow come from patent US4172896A, “Methane-sulfonamide derivatives, the preparation thereof and composition comprising the same” (Dainippon Pharmaceutical Co., Ltd., priority 1978, dated 1979).

A short description of data set [1]: Effect on coordinated motor movements in mice (rotarod). Conditions: for TD50 / selectivity ratio: mouse, in vivo, po; for NTD50 (median neurotoxic dose): oral, mice, rotarod, at peak effect time. Here is the method:
Mice trained to continue coordinated motor movements for 100 seconds or more on a rotarod apparatus (2.5 cm in diameter at 11 RPM) were used [J. Amer. Pharm. […] Impairment of coordinated motor movements was defined as the inability of the animals to retain on the rotarod for a 100 second test period. After oral administration of the test compounds rotarod performance was tested at intervals of 1 hour for 6 hours. Median neurotoxic dose (NTD50), i.e. the does which causes fall from rotarod in 50% of animals, was calculated by the method of Litchfield and Wilcoxon.
(In general: Falling from the rotarod earlier than controls is read as motor impairment.)

Data set [2] is described as follows: Anti-maximal electroshock seizure activity in mice. In kind it is in vivo, mice (male, STD-ddY strain). Conditions: Mus musculus, oral, MES 60 Hz 25 mA 0.2 s, at peak effect time. The text has this: Male mice of STD-ddY strain were used. The test compounds were orally administered to the test animals (each group: 10 mice) in the form of a homogeneous suspension in a 0.5% tragacanth solution.
Maximal electroshock seizures (MES) were induced by the method of Swinyard [cf. J. Amer. Pharm. Assoc., Vol. 38, page 201 (1949)]. The animals were subjected to 60 Hz current of 25 mA for 0.2 second delivered through corneal electrodes after administration of the test compounds. […] J. Pharmacol. Exp. Ther., Vol. 96, page 99 (1947)].
(In general: Protection in the maximal electroshock model is a classic sign of anticonvulsant action.)

Another data set is described as follows: in vivo. Conditions: mouse; for LD50 at 168 h: mortality observed for 7 days; for selectivity ratio: read-out: Safety index. The source says:
Male mice of STD-ddY strain weighing 20-22 g were used. The test compounds were orally administered to the test animals (each group: 10 mice) in the form of a homogeneous suspension in 0.5% tragacanth solution.

As to `NC(=O)N1c2ccccc2C=Cc2ccccc21` [Carbamazepine, 5H-dibenz[b,f]azepine-5-carboxamide, reference compound], the TD50 in data set [1] worked out at 141 mg/kg. Moreover, the figures for the selectivity ratio (in data set [1]; in “in vivo” (po)) were 10.7 and 129, respectively. For the same compound, the median effective dose (ED50) – broadly, the dose that gives a 50% effect, or the effect in half of the subjects – in data set [2] came to 13.2 mg/kg. Moreover, the median lethal dose (LD50) (commonly the dose expected to kill half of the subjects tested) at 168 h in the data set “in vivo” (oral, mice) came out at 1700 mg/kg. In data set [1], `O=C1NC(=O)C(c2ccccc2)(c2ccccc2)N1` [Diphenylhydantoin, 5,5-diphenyl-2,4-imidazolidinedione, reference compound] had a TD50 of 72 mg/kg. In addition, it took a dose of 7.6 mg/kg to reach the 50% effect level in data set [2] (ED50).

The compound `NC(=O)NC(=O)Cc1ccccc1` [Phenacemide, phenylacetylurea, reference compound] came in with an ED50 in data set [2] of 61.2 mg/kg.

The compound `CCC1(c2ccccc2)C(=O)NCNC1=O` [Primidone, 5-ethyl-5-phenylhexahydropyrimidine-4,6-dione, reference compound] came in with an ED50 in data set [2] of 21.7 mg/kg.

Take `CCNS(=O)(=O)Cc1noc2ccccc12` [Test compound 3]: the ED50 in data set [2] came out at 38.9 mg/kg.

In data set [2], `CC(C)NS(=O)(=O)Cc1noc2ccccc12` [Test compound 4] yielded an ED50 of 56 mg/kg.

In turn, `CNS(=O)(=O)Cc1noc2ccc(Cl)cc12` [Test compound 7] displayed an ED50 in data set [2] of approximately 20 mg/kg. Regarding `NS(=O)(=O)Cc1noc2ccc(F)cc12` [Test compound 10, 5-Fluoro-3-sulfamoylmethyl-1,2-benzisoxazole], in data set [1], the selectivity ratio is 10.6 and the “NTD50 (median neurotoxic dose)” value is recorded as 154 mg/kg, p.o. The selectivity ratio in the data set “in vivo” (LD50/ED50 of anti-MES, mice, oral) was found to be 86.7. Besides, the LD50 at 168 h in the data set “in vivo” (oral, mice) amounted to 1260 mg/kg. Consider `NS(=O)(=O)Cc1noc2ccccc12` [compound 1], for which, in data set [1], the selectivity ratio stood at 14.9 and the “NTD50 (median neurotoxic dose)” value was 292 mg/kg, p.o. The ED50 in data set [2] is 19.6 mg/kg. Further, in “in vivo” (oral, mice), the LD50 at 168 h was determined as 1830 mg/kg. In “in vivo” (po), the selectivity ratio turned out to be 93.3. The compound `CNS(=O)(=O)Cc1noc2ccccc12` [compound 2] registered an ED50 in data set [2] of 22.3 mg/kg.

In turn, `CN(C)S(=O)(=O)Cc1noc2ccccc12` [compound 5] displayed an ED50 in data set [2] of 37.2 mg/kg. Still for that read-out and setting: to `NS(=O)(=O)Cc1noc2ccc(Cl)cc12` [compound 6] belongs 14.2 mg/kg; to `CCNS(=O)(=O)Cc1noc2ccc(Cl)cc12` [compound 8], 21.3 mg/kg. The same measure, in the same setting: the same measure for `CN(C)S(=O)(=O)Cc1noc2ccc(Cl)cc12` [compound 9]: 56.2 mg/kg; for `CNS(=O)(=O)Cc1noc2ccc(F)cc12` [compound 11]: 34.5 mg/kg.

Turning to `CCNS(=O)(=O)Cc1noc2ccc(F)cc12` [compound 12], the ED50 in data set [2] turned out to be 31.6 mg/kg.

In data set [2], `CN(C)S(=O)(=O)Cc1noc2ccc(F)cc12` [compound 13] yielded an ED50 of 32 mg/kg.

In turn, `NS(=O)(=O)Cc1noc2ccc(Br)cc12` [compound 14] came in with an ED50 in data set [2] of 13.5 mg/kg. On the same count and under the same terms, to `CNS(=O)(=O)Cc1noc2ccc(Br)cc12` [compound 15] belongs 15 mg/kg; to `CCNS(=O)(=O)Cc1noc2ccc(Br)cc12` [compound 16], 18.3 mg/kg. As to `CC(C)NS(=O)(=O)Cc1noc2ccc(Br)cc12` [compound 17], it took a dose of 22.3 mg/kg to reach the 50% effect level in data set [2] (ED50). The same measure, in the same setting: to `NS(=O)(=O)Cc1noc2cc(F)ccc12` [compound 18] belongs 18.9 mg/kg. With `NS(=O)(=O)Cc1nc2ccccc2o1` [compound 19], in data set [1], the TD50 was found to be 168 mg/kg and the selectivity ratio worked out at 14. Also, the ED50 in data set [2] amounted to 12 mg/kg. Moreover, in the data set “in vivo” (oral, mice), the LD50 at 168 h was approximately 1800 mg/kg.

The compound `CNS(=O)(=O)Cc1nc2ccccc2o1` [compound 20] gave an ED50 in data set [2] of 17.2 mg/kg. The compound `CN(C)S(=O)(=O)Cc1nc2ccccc2o1` [compound 21] registered an ED50 in data set [2] of 34 mg/kg. Same read-out and setting: the same measure for `CCCNS(=O)(=O)Cc1nc2ccccc2o1` [compound 22]: 31.2 mg/kg; for `NS(=O)(=O)Cc1nc2cc(Cl)ccc2o1` [compound 23]: 30.3 mg/kg.
